Assay results as given in ChEMBL document CHEMBL4804281, “STK4 inhibitors for treatment of hematologic malignancies” (2020).
Activity calls are given as the source filed them. The rule behind the calls is not given here.

How the values were obtained:
[1] = target: T1, Serine/threonine-protein kinase 4 (Homo sapiens) (UniProt Q13043); assay: Inhibition of STK4 (unknown origin) using fluorescein-labelled Ser/Thr-07 peptide as substrate incubated for 1 hr in presence of ATP at Km concentration by Z-LYTE assay
T1 sequence (whole entry): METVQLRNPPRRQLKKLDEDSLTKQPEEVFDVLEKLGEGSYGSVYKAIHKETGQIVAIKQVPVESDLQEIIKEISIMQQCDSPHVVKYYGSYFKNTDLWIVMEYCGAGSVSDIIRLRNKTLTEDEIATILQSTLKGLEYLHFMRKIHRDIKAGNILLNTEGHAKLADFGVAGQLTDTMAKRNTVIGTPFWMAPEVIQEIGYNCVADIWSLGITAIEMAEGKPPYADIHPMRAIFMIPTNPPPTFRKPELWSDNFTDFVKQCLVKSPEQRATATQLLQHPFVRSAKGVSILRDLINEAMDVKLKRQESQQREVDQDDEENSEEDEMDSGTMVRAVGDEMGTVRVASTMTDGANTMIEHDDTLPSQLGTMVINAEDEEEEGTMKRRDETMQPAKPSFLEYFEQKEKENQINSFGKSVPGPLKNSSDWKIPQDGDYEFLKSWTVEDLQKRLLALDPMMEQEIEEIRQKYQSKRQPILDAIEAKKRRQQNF

MM1.S [2] = assay: Upregulation of YAP1 protein level in human MM1.S cells at 1 uM measured after 16 hrs by Western blot analysis; assay type: functional, cell-based
[3] = target: Serine/threonine-protein kinase 24 (Homo sapiens) (UniProt Q9Y6E0); assay: Inhibition of STK24 (unknown origin) using fluorescein-labelled Ser/Thr-07 peptide as substrate incubated for 1 hr in presence of ATP at Km concentration by Z-LYTE assay
Sequence of Serine/threonine-protein kinase 24 (Homo sapiens) (Q9Y6E0 whole entry, looked up): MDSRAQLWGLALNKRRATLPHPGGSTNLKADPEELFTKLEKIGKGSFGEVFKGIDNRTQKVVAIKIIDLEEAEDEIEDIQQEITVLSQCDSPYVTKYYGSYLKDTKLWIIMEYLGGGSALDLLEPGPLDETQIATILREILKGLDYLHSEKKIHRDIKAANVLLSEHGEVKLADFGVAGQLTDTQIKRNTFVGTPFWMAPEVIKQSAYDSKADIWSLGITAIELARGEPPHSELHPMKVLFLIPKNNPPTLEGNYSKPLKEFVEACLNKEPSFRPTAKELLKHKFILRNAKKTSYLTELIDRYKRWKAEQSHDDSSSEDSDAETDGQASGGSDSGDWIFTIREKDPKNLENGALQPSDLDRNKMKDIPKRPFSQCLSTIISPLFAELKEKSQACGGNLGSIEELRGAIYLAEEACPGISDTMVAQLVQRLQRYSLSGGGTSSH

[4] = target: T2, Serine/threonine-protein kinase 3 (Homo sapiens) (UniProt Q13188); assay: Inhibition of STK3 (unknown origin) using fluorescein-labelled Ser/Thr-07 peptide as substrate incubated for 1 hr in presence of ATP at Km concentration by Z-LYTE assay
T2 sequence (whole entry): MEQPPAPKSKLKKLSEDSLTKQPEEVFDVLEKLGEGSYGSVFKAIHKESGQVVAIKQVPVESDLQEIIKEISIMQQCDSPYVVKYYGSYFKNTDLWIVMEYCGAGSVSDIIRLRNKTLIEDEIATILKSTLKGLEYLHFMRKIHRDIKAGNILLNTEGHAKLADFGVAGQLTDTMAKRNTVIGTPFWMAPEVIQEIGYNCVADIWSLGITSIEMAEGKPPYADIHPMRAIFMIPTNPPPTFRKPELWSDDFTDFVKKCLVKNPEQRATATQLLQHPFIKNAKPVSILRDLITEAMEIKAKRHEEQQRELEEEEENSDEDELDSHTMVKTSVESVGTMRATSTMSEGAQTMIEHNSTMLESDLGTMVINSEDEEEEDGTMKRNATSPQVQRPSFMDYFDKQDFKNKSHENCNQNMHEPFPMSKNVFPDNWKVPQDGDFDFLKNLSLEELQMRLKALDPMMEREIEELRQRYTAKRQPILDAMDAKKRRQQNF

MM1.S [5] = assay: Upregulation of YAP1 protein level in human MM1.S cells at 3 to 10 uM measured after 72 hrs by Western blot analysis; assay type: functional, cell-based; conditions: dose 3-10 µM
NCI-H929 [6] = assay: Upregulation of YAP1 protein level in human NCI-H929 cells at 3 to 10 uM measured after 72 hrs by Western blot analysis; assay type: functional, cell-based; conditions: dose 3-10 µM
MM1.S [7] = assay: Downregulation of phosphorylated-MOB1 protein level in human MM1.S cells at 1 to 10 uM measured after 6 hrs by Western blot analysis; assay type: functional, cell-based; conditions: dose 1-10 µM
[8] = target: Casein kinase I isoform gamma-3 (Homo sapiens) (UniProt Q9Y6M4); assay: Inhibition of wild-type human full length CSNK1G3 (M1 to K447 residues) expressed in bacterial expression system by Kinomescan method
Sequence of Casein kinase I isoform gamma-3 (Homo sapiens) (Q9Y6M4 whole entry, looked up, the tested form may be a part, canonical isoform): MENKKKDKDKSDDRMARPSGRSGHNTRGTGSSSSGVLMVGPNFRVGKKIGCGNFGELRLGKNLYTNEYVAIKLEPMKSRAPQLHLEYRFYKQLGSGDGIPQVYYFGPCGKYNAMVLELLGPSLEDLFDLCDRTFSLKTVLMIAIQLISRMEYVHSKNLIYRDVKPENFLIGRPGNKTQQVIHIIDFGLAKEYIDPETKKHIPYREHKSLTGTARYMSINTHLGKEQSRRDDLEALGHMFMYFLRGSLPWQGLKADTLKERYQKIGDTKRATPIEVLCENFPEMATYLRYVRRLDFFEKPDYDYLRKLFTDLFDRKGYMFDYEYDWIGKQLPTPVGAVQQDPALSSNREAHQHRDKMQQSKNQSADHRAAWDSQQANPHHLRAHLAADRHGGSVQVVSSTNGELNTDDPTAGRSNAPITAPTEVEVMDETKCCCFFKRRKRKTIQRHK

[9] = target: Interleukin-1 receptor-associated kinase 1 (Homo sapiens) (UniProt P51617); assay: Inhibition of wild-type human partial length IRAK1 (R194 to S712 residues) expressed in mammalian expression system by Kinomescan method
Sequence of Interleukin-1 receptor-associated kinase 1 (Homo sapiens) (P51617 whole entry, looked up, the tested form may be a part): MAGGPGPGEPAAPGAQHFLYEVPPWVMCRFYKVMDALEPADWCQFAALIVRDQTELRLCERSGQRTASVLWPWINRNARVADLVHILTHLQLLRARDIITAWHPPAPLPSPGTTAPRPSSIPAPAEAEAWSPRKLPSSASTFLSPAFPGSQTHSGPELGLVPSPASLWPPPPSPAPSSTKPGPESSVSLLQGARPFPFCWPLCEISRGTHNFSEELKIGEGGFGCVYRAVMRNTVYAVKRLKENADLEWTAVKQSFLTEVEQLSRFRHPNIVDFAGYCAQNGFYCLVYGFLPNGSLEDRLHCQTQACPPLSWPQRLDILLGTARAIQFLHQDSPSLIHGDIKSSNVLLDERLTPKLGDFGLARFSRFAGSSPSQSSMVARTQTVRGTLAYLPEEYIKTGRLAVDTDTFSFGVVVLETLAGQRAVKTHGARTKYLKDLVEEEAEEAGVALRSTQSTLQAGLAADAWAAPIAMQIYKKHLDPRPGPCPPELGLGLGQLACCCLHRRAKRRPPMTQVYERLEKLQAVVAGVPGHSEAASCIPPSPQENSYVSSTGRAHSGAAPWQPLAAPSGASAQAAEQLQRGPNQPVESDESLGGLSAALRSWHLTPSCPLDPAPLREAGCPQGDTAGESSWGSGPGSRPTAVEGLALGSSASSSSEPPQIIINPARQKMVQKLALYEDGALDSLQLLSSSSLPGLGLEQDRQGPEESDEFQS

MM1.S [10] = assay: Upregulation of YAP1 protein level in human MM1.S cells at 1 to 10 uM measured after 16 hrs by Western blot analysis; assay type: functional, cell-based; conditions: dose 1-10 µM
[11] = target: Serine/threonine-protein kinase 26 (Homo sapiens) (UniProt Q9P289); assay: Inhibition of MST4 (unknown origin) using fluorescein-labelled Ser/Thr-07 peptide as substrate incubated for 1 hr in presence of ATP at Km concentration by Z-LYTE assay
Sequence of Serine/threonine-protein kinase 26 (Homo sapiens) (Q9P289 2-416 limits assumed): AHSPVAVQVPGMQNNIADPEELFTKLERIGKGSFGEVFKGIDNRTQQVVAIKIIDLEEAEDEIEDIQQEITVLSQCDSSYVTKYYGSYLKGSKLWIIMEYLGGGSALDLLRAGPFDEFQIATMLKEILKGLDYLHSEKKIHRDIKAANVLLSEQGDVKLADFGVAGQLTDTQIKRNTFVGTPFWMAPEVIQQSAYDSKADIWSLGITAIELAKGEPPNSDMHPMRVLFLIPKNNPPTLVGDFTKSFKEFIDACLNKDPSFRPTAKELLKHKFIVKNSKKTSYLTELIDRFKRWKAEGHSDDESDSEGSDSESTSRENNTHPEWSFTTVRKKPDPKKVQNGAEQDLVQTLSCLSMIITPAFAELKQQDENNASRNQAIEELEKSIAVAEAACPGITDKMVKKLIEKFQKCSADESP

[12] = target: T2, Serine/threonine-protein kinase 3 (Homo sapiens); assay: Inhibition of wild-type human partial length MST2 (D17 to E318 residues) expressed in bacterial expression system by Kinomescan method
[13] = target: Casein kinase I isoform epsilon (Homo sapiens) (UniProt P49674); assay: Inhibition of wild-type human full length CSNK1E (M1 to K416 residues) expressed in bacterial expression system by Kinomescan method
Sequence of Casein kinase I isoform epsilon (Homo sapiens) (P49674 whole entry, looked up, the tested form may be a part, canonical isoform): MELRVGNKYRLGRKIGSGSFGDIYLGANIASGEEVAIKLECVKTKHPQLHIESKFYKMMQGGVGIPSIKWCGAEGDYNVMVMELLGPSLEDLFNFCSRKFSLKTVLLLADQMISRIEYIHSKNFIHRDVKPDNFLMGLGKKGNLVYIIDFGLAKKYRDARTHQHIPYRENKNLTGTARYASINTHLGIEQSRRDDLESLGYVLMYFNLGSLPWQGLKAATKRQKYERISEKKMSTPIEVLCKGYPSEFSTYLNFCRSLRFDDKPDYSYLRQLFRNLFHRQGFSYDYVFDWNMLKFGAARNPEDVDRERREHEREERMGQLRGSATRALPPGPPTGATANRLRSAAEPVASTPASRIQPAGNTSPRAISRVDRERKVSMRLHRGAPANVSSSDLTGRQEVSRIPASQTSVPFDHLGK

NCI-H929 [14] = assay: Upregulation of YAP1 protein level in human NCI-H929 cells at 1 to 10 uM measured after 16 hrs by Western blot analysis; assay type: functional, cell-based; conditions: dose 1-10 µM

SMILES | IC50 [1] [nM] | further results
Nc1ncc(-c2cccc(S(N)(=O)=O)c2)cc1-c1ccc2c(c1)CCNC2=O | 200 | –
NC(=O)c1ccc(-c2cc(-c3cc([N+](=O)[O-])ccc3F)cnc2N)cc1 | 200 | –
Nc1ncc(-c2cc(F)ccc2[N+](=O)[O-])cc1-c1ccc2c(c1)CCNC2=O | > 900 | –
COc1cc(-c2nccs2)ccc1-c1cnc(N)c(-c2ccc3c(c2)CCNC3=O)c1 | 40 | –
Nc1ncc(-c2cccc(NS(=O)(=O)C3CC3)c2)cc1-c1ccc2c(c1)CCNC2=O | < 40 | –
Nc1ncc(-c2ccc(NS(=O)(=O)C3CC3)cc2OCc2ccccc2)cc1-c1ccc2c(c1)CCNC2=O | 40 | –
CCNC(=O)c1ccc(F)c(-c2cnc(N)c(-c3ccc4c(c3)CCNC4=O)c2)c1 | > 900 | –
COc1ccncc1-c1cnc(N)c(-c2ccc3c(c2)CCNC3=O)c1 | > 900 | –
Nc1ncc(-c2ccc(F)c3ncsc23)cc1-c1ccc2c(c1)CNC2=O | 40 | –
Nc1ncc(-c2cc([N+](=O)[O-])ccc2Cl)cc1-c1ccc2c(c1)CCNC2=O | > 900 | –
Nc1ncc(-c2ccc(F)c3ncsc23)cc1-c1ccc2c(c1)CCNC2=O | < 40 | –
COc1cc(S(=O)(=O)NC2CC2)ccc1-c1cnc(N)c(-c2ccc3c(c2)CCNC3=O)c1 | < 40 | –
COc1cc(S(=O)(=O)N(C)C2CCCCC2)ccc1-c1cnc(N)c(-c2ccc3c(c2)CCNC3=O)c1 | 40 | –
CN1CCc2cc(-c3cc(-c4ccc(S(=O)(=O)N(C)C5CC5)cc4F)cnc3N)ccc2C1=O | < 40 | –
Cc1cc(N2CCOCC2)cc2[nH]c(-c3c(NC[C@@H](O)c4cccc(Cl)c4)cc[nH]c3=O)nc12 | 40 | Activity (MM1.S [2]): inactive
C#Cc1cc(F)c(-c2cnc(N)c(-c3ccc4c(c3)CCNC4=O)c2)cc1[N+](=O)[O-] | 40 | –
CN(C1CC1)S(=O)(=O)c1ccc(-c2cnc(N)c(-c3ccc4c(=O)[nH]cnc4c3)c2)c(F)c1 | < 40 | –
CC(C)Oc1cc(S(=O)(=O)N(C)C2CC2)ccc1-c1cnc(N)c(-c2ccc3c(c2)CCNC3=O)c1 | < 40 | –
CN1CCc2cc(-c3cc(-c4cccc5ncsc45)cnc3N)ccc2C1=O | 40 | –
Nc1ncc(-c2ccc(NS(=O)(=O)C3CC3)cc2OC2CCCC2)cc1-c1ccc2c(c1)CCNC2=O | < 40 | –
Nc1ncc(-c2ccc3ncsc3c2)cc1-c1ccc2c(c1)CCNC2=O | 40 | –
Nc1ncc(-c2ccc([N+](=O)[O-])cc2F)cc1-c1ccc2c(c1)CCNC2=O | 40 | –
N#Cc1cccc(-c2cnc(N)c(-c3ccc4c(c3)CCNC4=O)c2)c1 | 40 | IC50 [3]: 200 nM; IC50 [4]: 40 nM
CN(C1CC1)S(=O)(=O)c1ccc(-c2cnc(N)c(-c3ccc4c(c3)CCNC4=O)c2)cc1 | < 40 | Activity (MM1.S [2]): Active
NC(=O)c1ccc(-c2cc(-c3cc([N+](=O)[O-])ccc3F)cnc2N)cc1Cl | 200 | –
Nc1ncc(-c2cccc(S(=O)(=O)NC3CC3)c2)cc1-c1ccc2c(c1)CCNC2=O | 40 | Activity (MM1.S [5]): Active; Activity (NCI-H929 [6]): Active; IC50 [3]: 200 nM; IC50 [4]: 40 nM
Nc1ncc(-c2ccccc2F)cc1-c1ccc2c(c1)CCNC2=O | 40 | –

SMILES | IC50 [1] [nM] | further results
Nc1ncc(-c2cc(-c3cccc4ncsc34)ccc2F)cc1-c1ccc2c(=O)[nH]cnc2c1 | 40 | –
Nc1ncc(-c2cc([N+](=O)[O-])c(NCc3ccccc3)cc2F)cc1-c1ccc2c(c1)CCNC2=O | 40 | Activity (MM1.S [7]): Active
Nc1ncc(-c2cncc3ncsc23)cc1-c1ccc2c(c1)CCNC2=O | 200 | –
Nc1ncc(-c2cccc([N+](=O)[O-])c2)cc1-c1ccc2c(c1)CCNC2=O | < 40 | –
COc1cc(S(=O)(=O)N(C)C2CC2)ccc1-c1cnc(N)c(-c2ccc3c(c2)CCNC3=O)c1 | < 40 | IC50 [3]: 40 nM; IC50 [4]: < 40 nM
Nc1ncc(-c2cccc(-c3nccs3)c2)cc1-c1ccc2c(c1)CCNC2=O | < 40 | –
Nc1ncc(-c2cccc3scnc23)cc1-c1ccc2c(c1)CCNC2=O | 40 | –
Cc1cc(S(=O)(=O)N(C)C2CC2)ccc1-c1cnc(N)c(-c2ccc3c(c2)CCNC3=O)c1 | < 40 | –
COc1cc(S(=O)(=O)N(C)C2CCOCC2)ccc1-c1cnc(N)c(-c2ccc3c(c2)CCNC3=O)c1 | 40 | –
CC(C)Oc1cc(S(=O)(=O)N(C)C2CC2)ccc1-c1cnc(N)c(-c2ccc3c(c2)CNC3=O)c1 | < 40 | –
Cn1cnc2c(-c3cnc(N)c(-c4ccc5c(c4)CCNC5=O)c3)cccc21 | 40 | –
CN(C1CC1)S(=O)(=O)c1ccc(-c2cnc(N)c(-c3ccc4c(c3)CNC4=O)c2)c(F)c1 | < 40 | IC50 [3]: > 900 nM; IC50 [4]: < 40 nM
C#Cc1ccc(-c2cnc(N)c(-c3ccc4c(c3)CCNC4=O)c2)c(OC)c1 | < 40 | –
Nc1ncc(-c2cc3c(cc2F)OCC(=O)N3)cc1-c1ccc2c(c1)CCNC2=O | < 40 | Activity (MM1.S [7]): Active; IC50 [4]: 40 nM
Nc1ncc(-c2cc(F)cc([N+](=O)[O-])c2)cc1-c1ccc2c(c1)CCNC2=O | 40 | –
Nc1ncc(-c2scnc2Cl)cc1-c1ccc2c(c1)CCNC2=O | 40 | IC50 [3]: > 900 nM; IC50 [4]: 40 nM
Nc1ncc(-c2cc([N+](=O)[O-])cc(F)c2F)cc1-c1ccc2c(c1)CCNC2=O | 40 | –
Nc1ncc(-c2cc([N+](=O)[O-])cnc2F)cc1-c1ccc2c(c1)CCNC2=O | 200 | –
Nc1ncc(-c2cc([N+](=O)[O-])ccc2F)cc1-c1ccc2c(c1)CCNC2=O | < 40 | Kd [8]: 4.68 nM; Kd [9]: 110 nM; Activity (MM1.S [10]): Active; IC50 [11]: > 900 nM; Kd [12]: 42.6 nM; Activity (MM1.S [7]): Active; Kd [13]: 201 nM; IC50 [3]: > 900 nM; Activity (NCI-H929 [14]): Active; IC50 [4]: 40 nM
CC(C)Oc1cc(NS(=O)(=O)C2CC2)ccc1-c1cnc(N)c(-c2ccc3c(c2)CCNC3=O)c1 | < 40 | –
Nc1ncc(-c2cccc3sccc23)cc1-c1ccc2c(c1)CCNC2=O | < 40 | –
Nc1ncc(-c2cc3scnc3cc2F)cc1-c1ccc2c(c1)CCNC2=O | 40 | –
Nc1ncc(-c2cc([N+](=O)[O-])c(Cl)cc2F)cc1-c1ccc2c(c1)CCNC2=O | 40 | Activity (MM1.S [7]): Active; IC50 [4]: 40 nM
CCOc1cc(S(=O)(=O)N(C)C2CC2)ccc1-c1cnc(N)c(-c2ccc3c(c2)CCNC3=O)c1 | < 40 | –
Nc1ncc(-c2cnccc2F)cc1-c1ccc2c(c1)CCNC2=O | 200 | –
N#Cc1cc(-c2cc(-c3cc([N+](=O)[O-])ccc3F)cnc2N)ccc1O | 200 | –
